pIC50: −log10 of the molar value.

One assay deals with T1, Human DGAT1 (Homo sapiens, UniProt O75907).
T1 construct: my translation of the primer: M-G-DYKDDDD-GDRGSSRRR) (N); made in house; host or cells: Sf9 insect cells (recombinant baculovirus BAC-DGAT1, pFASTBAC1); microsome fraction
T1 sequence (O75907 1-488): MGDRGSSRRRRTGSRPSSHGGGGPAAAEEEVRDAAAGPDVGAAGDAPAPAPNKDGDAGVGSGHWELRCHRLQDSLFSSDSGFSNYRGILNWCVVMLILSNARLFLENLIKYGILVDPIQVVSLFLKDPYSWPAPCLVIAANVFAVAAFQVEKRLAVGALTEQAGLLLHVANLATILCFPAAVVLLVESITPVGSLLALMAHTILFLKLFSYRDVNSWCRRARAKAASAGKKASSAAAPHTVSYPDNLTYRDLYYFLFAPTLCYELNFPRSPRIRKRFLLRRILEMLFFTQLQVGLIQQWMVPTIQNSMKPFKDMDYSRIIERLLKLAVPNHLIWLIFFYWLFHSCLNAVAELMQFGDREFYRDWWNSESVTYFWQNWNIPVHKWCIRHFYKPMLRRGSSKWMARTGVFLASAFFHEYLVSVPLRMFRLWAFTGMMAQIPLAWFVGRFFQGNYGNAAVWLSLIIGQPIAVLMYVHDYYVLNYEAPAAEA
As to the kind of experiment: DGAT inhibitory activity: [14C]-triglyceride synthesis by DGAT1 high expression Sf9 microsome. Conditions: Table 1, 25 μM dioleoylglycerol, 25 μM [14C]-Oleoyl-CoA, 32° C., 15 min, read-out: DGAT inhibitory activity (according to IC50). It is filed as biochemical. The essentials: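 DGAT1 was overexpressed from recombinant baculovirus in Sf9 cells, and microsomes from these cells were the enzyme source. Reactions ran in 100 mM Tris-HCl pH 7.5, 250 mM sucrose, 150 mM MgCl2 and 0.01% BSA. [14C]-triglyceride was extracted into chloroform, separated by TLC and quantified by imaging plate, with inhibition calculated against control and blank (no microsome) counts.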
Take `CCOc1ccc(C(=O)CCC(=O)Nc2ncc(-c3ccccc3)cc2-c2ccccc2)cc1OCC` [Example 13, 4-(3,4-diethoxyphenyl)-N-(3,5-diphenylpyridin-2-yl)-4-oxobutanamide]: the pIC50 is 6.30 to 7.30. The same measure, in the same setting: the same measure for `CCOc1ccc(C(=O)CCC(=O)Nc2cc(-c3ccccc3)nc(-c3ccccc3)c2)cc1OCC` [Example 12, 4-(3,4-diethoxyphenyl)-N-(2,6-diphenylpyridin-4-yl)-4-oxobutanamide]: 5.00 to 6.30; for `CCOc1ccc(C(=O)CCC(=O)Nc2nc(-c3ccccc3)c(Cc3ccccc3)s2)cc1Cl` [Example 36, N-(5-benzyl-4-phenyl-1,3-thiazol-2-yl)-4-(3-chloro-4-ethoxyphenyl)-4-oxobutanamide]: not below 8.00; for `CCOC(=O)c1sc(NC(=O)CCC(=O)c2ccc(OCC)c(OCC)c2)cc1-c1ccccc1` [Example 52, ethyl 5-{[4-(3,4-diethoxyphenyl)-4-oxobutanoyl]amino}-3-phenylthiophene-2-carboxylate]: 6.30 to 7.30. Regarding `O=C(CCC(=O)c1ccc(O)cc1)Nc1nc(-c2ccccc2)c(Cc2ccccc2)s1` [Example 33, N-(5-benzyl-4-phenyl-1,3-thiazol-2-yl)-4-(4-hydroxyphenyl)-4-oxobutanamide], the negative logarithm of the IC50 (pIC50) is 6.30 to 7.30. Still for that read-out and setting: next, `CCOC(=O)Cc1ccc(C(=O)CCC(=O)Nc2nc(-c3ccccc3)c(Cc3ccccc3)s2)cc1` [Example 34]: 6.30 to 7.30. For the compound `CCOc1ccc(C(=O)CCC(=O)Nc2cc(-c3ccc(OCOC)cc3)c3ccccc3n2)cc1OCC` [Example 15, 4-(3,4-diethoxyphenyl)-N-{4-[4-(methoxymethoxy)phenyl]quinolin-2-yl}-4-oxobutanamide], the pIC50 was 6.30 to 7.30.

Staying with this assay, now noted: Table 2, 25 μM dioleoylglycerol, 25 μM [14C]-Oleoyl-CoA, 32° C., 15 min, read-out: DGAT inhibitory activity (according to IC50).
As to `CCOc1ccc(C(=O)CCC(=O)Nc2cc(-c3ccncc3)c3ccccc3n2)cc1OCC` [Example 91, 4-(3,4-diethoxyphenyl)-4-oxo-N-[4-(pyridin-4-yl)quinolin-2-yl]butanamide], the negative-log IC50 (pIC50) was 6.30 to 7.30. In the case of `CCOc1ccc(C(=O)CCC(=O)Nc2cc(-c3cccc(C#N)c3)cc(-c3ccccc3)n2)cc1OCC` [Example 132, N-[4-(3-cyanophenyl)-6-phenylpyridin-2-yl]-4-(3,4-diethoxyphenyl)-4-oxobutanamide], the negative-log IC50 (pIC50) was 6.30 to 7.30. On the same count and under the same terms, next, `O=C(CCC(=O)c1ccc2c(c1)CCO2)Nc1cc(-c2cccc(OC(F)(F)F)c2)cc(-c2ccccc2)n1` [Example 175, 4-(2,3-dihydro-1-benzofuran-5-yl)-4-oxo-N-{6-phenyl-4-[3-(trifluoromethoxy)phenyl]pyridin-2-yl}butanamide]: 6.30 to 7.30.

Regarding `CCOc1ccc(C(=O)CCC(=O)Nc2cc(-c3ccccc3C(=O)O)cc(-c3ccccc3)n2)cc1OCC` [Example 148, 2-(2-{[4-(3,4-diethoxyphenyl)-4-oxobutanoyl]amino}-6-phenylpyridin-4-yl)benzoic acid], the pIC50 was 5.00 to 6.30. For `CCOc1ccc(C(=O)CCC(=O)Nc2cc(-c3cccc(CCC(=O)O)c3)cc(-c3ccccc3)n2)cc1OCC` [Example 141, 3-[3-(2-{[4-(3,4-diethoxyphenyl)-4-oxobutanoyl]amino}-6-phenylpyridin-4-yl)phenyl]propanoic acid], the pIC50 was 5.00 to 6.30. Still for that read-out and setting: the same measure for `Cc1ccc(C(=O)CCC(=O)Nc2cc(-c3ccccc3)cc(-c3ccccc3)n2)cc1C` [Example 111, 4-(3,4-dimethylphenyl)-N-(4,6-diphenylpyridin-2-yl)-4-oxobutanamide]: 5.00 to 6.30. Turning to `CCOc1ccc(C(=O)CCC(=O)Nc2cc(-c3ccc(CN4CCOCC4)cc3)cc(-c3ccccc3)n2)cc1OCC` [Example 130, 4-(3,4-diethoxyphenyl)-N-{4-[4-(morpholin-4-ylmethyl)phenyl]-6-phenylpyridin-2-yl}-4-oxobutanamide], the negative logarithm of the IC50 (pIC50) was 5.00 to 6.30. On the same count and under the same terms, the same measure for `O=C(CCC(=O)c1ccc2c(c1)CCCC2)Nc1cc(-c2ccccc2)c2cc(Cl)ccc2n1` [Example 75, N-(6-chloro-4-phenylquinolin-2-yl)-4-oxo-4-(5,6,7,8-tetrahydronaphthalen-2-yl)butanamide]: 6.30 to 7.30.

What is called pIC50 is the IC50 on a negative log10 scale, so that one unit is a factor of ten.

The values above are taken from US20090048258A1, “Amide Compound” (priority 2005, published 2009).
